Reference: ChEMBL document CHEMBL1201862, “PubChem BioAssay data set” (2004)
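Following 48 hours of exposure in 96-well plates, responses at five concentrations were used to interpolate endpoints linearly. Abbreviation: GI50, concentration required for 50% inhibition of growth.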 Activity calls are given as the source filed them. Cut-off read from the data, not from the text of the source: active = GI50 up to about 1.1 µM and inactive = higher.

How the values were obtained:
Test in all cases: growth of human tumour cells (NCI), 48 h
LOX IMVI = tested on: LOX IMVI
K562 = tested on: K562
OVCAR-3 = tested on: OVCAR-3
MDA-N = tested on: MDA-N
SNB-19 = tested on: SNB-19
SNB-75 = tested on: SNB-75
SF-295 = tested on: SF-295
SK-MEL-5 = tested on: SK-MEL-5
786-0 = tested on: 786-0
HCT-116 = tested on: HCT-116
KM12 = tested on: KM12
U-251 = tested on: U-251
SK-MEL-2 = tested on: SK-MEL-2
SF-539 = tested on: SF-539
SW-620 = tested on: SW-620
OVCAR-4 = tested on: OVCAR-4
OVCAR-5 = tested on: OVCAR-5
NCI-H522 = tested on: NCI-H522
UACC-257 = tested on: UACC-257
COLO 205 = tested on: COLO 205

| Compound | GI50 (LOX IMVI) | GI50 (K562) | GI50 (OVCAR-3) | GI50 (MDA-N) | GI50 (SNB-19) | GI50 (SNB-75) | GI50 (SF-295) | GI50 (SK-MEL-5) | GI50 (786-0) | GI50 (HCT-116) | GI50 (KM12) | GI50 (U-251) | GI50 (SK-MEL-2) | GI50 (SF-539) | GI50 (SW-620) | GI50 (OVCAR-4) | GI50 (OVCAR-5) | GI50 (NCI-H522) | GI50 (UACC-257) | GI50 (COLO 205) |
| --- | --- | --- | --- | --- | --- | --- | --- | --- | --- | --- | --- | --- | --- | --- | --- | --- | --- | --- | --- | --- |
| O=C(COc1ccc(Cl)cc1Cl)N/N=C/C=C/c1ccc([N+](=O)[O-])o1 | 3.27 µM (inactive) | 4.43 µM (inactive) | 4.59 µM (inactive) | 3.43 µM (inactive) | 9.48 µM (inactive) | 14.3 µM (inactive) | 23.3 µM (inactive) | 1.96 µM (inactive) | 12.3 µM (inactive) | 1.87 µM (inactive) | 4.86 µM (inactive) | 15.7 µM (inactive) | 3.27 µM (inactive) | 7.31 µM (inactive) | 5.37 µM (inactive) | 4.35 µM (inactive) | > 100 µM (inactive) | 1.04 µM (active) |  |  |
| COc1ccc2oc(=N)c(C(N)=S)cc2c1 | 15.4 µM (inactive) | 28.4 µM (inactive) |  | 21.1 µM (inactive) | 31.2 µM (inactive) | 24.9 µM (inactive) | 37.1 µM (inactive) | 13.6 µM (inactive) | 23.9 µM (inactive) | 17.4 µM (inactive) | 22.2 µM (inactive) | 29 µM (inactive) | 18.4 µM (inactive) | 22.1 µM (inactive) | 25.5 µM (inactive) | 31.9 µM (inactive) | 29.9 µM (inactive) | 17.5 µM (inactive) | 26.9 µM (inactive) | 29.8 µM (inactive) |
| CC#CCCN(CC#N)Cc1ccccc1 | > 100 µM (inactive) | > 100 µM (inactive) |  | > 100 µM (inactive) | > 100 µM (inactive) | > 100 µM (inactive) | > 100 µM (inactive) | > 100 µM (inactive) | > 100 µM (inactive) | > 100 µM (inactive) | > 100 µM (inactive) | > 100 µM (inactive) | > 100 µM (inactive) |  |  | > 100 µM (inactive) | > 100 µM (inactive) | > 100 µM (inactive) | > 100 µM (inactive) | > 100 µM (inactive) |
| Nc1nc(N)c2ncn(-c3ccc(Cl)cc3)c2n1 | 36.6 µM (inactive) |  | 40.6 µM (inactive) | 89.1 µM (inactive) |  | 10.1 µM (inactive) | 33.7 µM (inactive) | 23.6 µM (inactive) | 70.3 µM (inactive) | 37.9 µM (inactive) | 26.8 µM (inactive) | 49.1 µM (inactive) | 39.6 µM (inactive) | 27.4 µM (inactive) |  | 80.5 µM (inactive) | 16.7 µM (inactive) | 28.6 µM (inactive) | > 100 µM (inactive) | 75.5 µM (inactive) |
| NCCNCCCNC(=O)c1cc(-c2ccccc2)nc2ccccc12 | 28.3 µM (inactive) | 23.1 µM (inactive) | > 100 µM (inactive) | 25.5 µM (inactive) | 50 µM (inactive) | > 10 µM (inactive) | 28.6 µM (inactive) | 15.6 µM (inactive) | 22.3 µM (inactive) | 35.6 µM (inactive) | 33.1 µM (inactive) | 17.6 µM (inactive) | 21 µM (inactive) | 19.6 µM (inactive) | 34 µM (inactive) |  | 46.3 µM (inactive) | 17.6 µM (inactive) | 24.1 µM (inactive) | 16.2 µM (inactive) |
| C=CC1(CC/C(=C\[N+](=O)[O-])c2ccc(OC)c(OC)c2)OCC(C)(C)CO1 | 12.8 µM (inactive) | 6.61 µM (inactive) | 20.6 µM (inactive) | 21.8 µM (inactive) | 16.9 µM (inactive) |  | 18.7 µM (inactive) | 13.1 µM (inactive) | 17.1 µM (inactive) | 18.9 µM (inactive) | 15.5 µM (inactive) | 23.1 µM (inactive) | 19.1 µM (inactive) |  | 26.9 µM (inactive) | 11.6 µM (inactive) | 16.1 µM (inactive) | 13.8 µM (inactive) | 10.2 µM (inactive) | 18 µM (inactive) |
| CN(C)c1ccc(/C=C2\N=C(c3ccccc3)N(c3ccc4c(c3)Sc3cc(N5C(=O)/C(=C/c6ccc(N(C)C)cc6)N=C5c5ccccc5)ccc3N4)C2=O)cc1 | 19.5 µM (inactive) | 29.6 µM (inactive) | 12.2 µM (inactive) | 53.8 µM (inactive) | 17.5 µM (inactive) | 11.9 µM (inactive) | 15.2 µM (inactive) | 17.9 µM (inactive) | 22.9 µM (inactive) | 26.3 µM (inactive) | > 100 µM (inactive) | 15.6 µM (inactive) | 18.6 µM (inactive) | 17.5 µM (inactive) | 44.7 µM (inactive) | 22.6 µM (inactive) | 18.8 µM (inactive) |  | 19.7 µM (inactive) | > 100 µM (inactive) |
